Experimental data as given in patent US10085449B2, “N-[1-((6-chloropyridin-3-yl)methyl)pyridin-2(1H)-ylidene]-2,2,2- trifluoroacetamide for control of agricultural/horticultural pests” (priority 2010, dated 2018).
Where two headings read alike, the source gives them in different places.

Legend:
[1] = system: white-backed rice planthopper; experiment: White-backed rice planthopper control test (foliar application); format: in vivo; settings: 100 ppm foliar application, second-instar larvae on rice seedlings, 4 days after release
Description: (§1) Rice seedlings grown in pots were subjected to the foliar application of solutions of the inventive compounds at a predetermined concentration prepared to 50% acetone/water (containing 0.05% Tween 20). The treated seedlings were air dried, following which second-instar larvae were released onto the seedlings. The seedlings and larvae were then held in an incubation chamber at 25° C. (16-hour period of light, 8-hour dark period). Four days after released, the numbers of live and dead insects were counted, and the mortality was calculated from the following formula. This was a two-replication test. Mortality (%)=[number of dead insects/(number of live insects+number of dead insects)]×100

[2] = system: canine heartworm microfilariae; experiment: Effects on canine heartworm (motility of microfilariae); design: key: At least two-thirds of the heartworms died; B: Substantially all the heartworms were affected in some way, or at least one-third died; C: No influence, or less than one-third of the heartworms died; settings: 3.13 ppm in RPMI1640 liquid culture medium, 37° C., observed for 48 hours
Description: The activities of the compounds were evaluated based on changes in the motility of microfilariae in canine heartworm. The respective compounds were dissolved in a RPMI1640 liquid culture medium to a concentration of 3.13 ppm, following which about 20 canine heartworm microfilariae were placed in each culture fluid and cultured at 37° C.
Criteria A: At least two-thirds of the heartworms died • B: Substantially all the heartworms were affected in some way, or at least one-third died • C: No influence, or less than one-third of the heartworms died

greenhouse whitefly = experiment: whole plant or invertebrate; format: in vivo
Description: Adult greenhouse whiteflies were released onto cucumber plants grown in pots, and allowed to laid eggs overnight. One day after the start of oviposition, the adults were removed, and the plants and eggs were held in an incubation chamber at 25° C. (16-hour period of light, 8-hour dark period). Three days after the end of oviposition, leaf discs 2.0 cm in diameter were cut from the cucumber plants and, after confirming oviposition thereon, the leaf discs were sprayed with solutions of the inventive compounds at a predetermined concentration prepared to 50% acetone/water (containing 0.05% Tween 20). After spraying, the treated leaf discs were held in an incubation chamber at 25° C. (16-hour period of light, 8-hour dark period). Fourteen days after spraying, the numbers of live and dead insects were counted, and the mortality was calculated from the following formula. This was a two-replication test. Mortality (%)=[(number of oviposited eggs−number of live insects)/number of oviposited eggs]×100

common cutworm = experiment: whole plant or invertebrate; format: in vivo; settings: for Insecticidal effects (mortality), common cutworm third-instar larvae: foliar application
Description: (§2) Leaf discs 5.0 cm in diameter were cut from cabbage plants grown in pots, and these were sprayed with solutions of the inventive compounds at a predetermined concentration prepared to 50% acetone/water (containing 0.05% Tween 20). The treated leaf discs were air dried, following which third-instar larvae were released onto the discs. The leaf discs and larvae were then held in an incubation chamber at 25° C. (16-hour period of light, 8-hour dark period). Three days after released, the numbers of live and dead insects were counted, and the mortality was calculated from the following formula. This was a two-replication test. Mortality (%)=[number of dead insects/(number of live insects+number of dead insects)]×100

small brown planthopper [3] = experiment: whole plant or invertebrate; format: in vivo; settings: Laodelphax striatellus, 72 h
Description: (§3) Rice seedlings grown in pots were subjected to soil drenching treatment with solutions of the inventive compounds at a predetermined concentration prepared to 10% acetone/water. Three days following treatment, ten second-instar small brown planthopper larvae were released onto each seedling. The treated seedlings and larvae were then held in an incubation chamber at 25° C. (16-hour period of light, 8-hour dark period). Three days after released, the numbers of live and dead insects were counted, and the mortality was calculated from the following formula. The test was carried out as two replications. Mortality (%)=[number of dead insects/(number of live insects+number of dead insects)]×100

small brown planthopper [4] = experiment: whole plant or invertebrate; format: in vivo; settings: Laodelphax striatellus, in Triticum aestivum, 96 h
Description: as §3, with “Wheat seedling roots 48 hours after sowing” for “Rice seedlings grown in pots”, “treated” for “subjected to soil drenching treatment”, “After allowing the roots to absorb the chemical for 72 hours,” for “Three days following treatment,”, “Four” for “Three”

rice leaf bug = experiment: whole plant or invertebrate; format: in vivo; settings: foliar, 72 h
Description: The treated seedlings were air-dried, then each was placed in a glass cylinder and two second-instar rice leaf bug larvae were released within the same glass cylinder. Following release of the insects, the tube was capped and held in an incubation chamber at 25° C. (16-hour period of light, 8-hour dark period). […] Three days after released, the numbers of live and dead insects were counted, and the mortality was calculated from the following formula. Mortality (%)=[number of dead insects/(number of live insects+number of dead insects)]×100

cotton aphid = experiment: whole plant or invertebrate; format: in vivo; settings: Aphis gossypii, foliar
Description: as §2, with “2.0” for “5.0”, “cucumber” for “cabbage”, “first-instar” for “third-instar”

diamondback moth = experiment: whole plant or invertebrate; format: in vivo; settings: Plutella xylostella, foliar
Description: as §2, with “second-instar” for “third-instar”

small brown planthopper [5] = experiment: whole plant or invertebrate; format: in vivo; settings: Laodelphax striatellus, foliar
Description: as §1, with “Three” for “Four”

western flower thrips = experiment: whole plant or invertebrate; format: in vivo; settings: Frankliniella occidentalis, foliar
Description: as §2, with “2.8” for “5.0”, “bean” for “cabbage”, “first-instar” for “third-instar”

[6] = system: small brown planthopper having a low susceptibility to insecticides; experiment: Small brown planthopper control test, pests having a low susceptibility to insecticides (soil drenching); format: in vivo; settings: 0.01 mg/seedling soil drenching
Description: as §3, with “days after” for “days following”, “larvae having a low susceptibility to insecticides” for “larvae”, “The” for “The treated”, “and insects” for “and larvae”
The pests used in this test were insects that had been raised indoors for successive generations over a long period of time (susceptible line), and insects that had been raised indoors for successive generations after being collected in 2006 within Kumamoto Prefecture (field-collected line).

[7] = soil, read-out: Insecticidal effects (mortality), small brown planthopper second-instar larvae
[8] = read-out: Insecticidal effects (mortality), small brown planthopper second-instar larvae
[9] = read-out: Insecticidal effects (mortality), cotton aphid first-instar larvae
[10] = read-out: Insecticidal effects (mortality), diamondback moth second-instar larvae
[11] = read-out: Insecticidal effects (mortality), western flower thrips first-instar larvae

SMILES: CSCCN(C#N)Cc1ccc(Cl)nc1 [Compound 1, 2-chloro-5-[N-cyano-N-(2-methylthioethyl)]aminomethylpyridine]
- Mortality [1]: at least 80%
- Microfilaricidal effect (motility rating) [2]: B

SMILES: CSC(=S)SCCN(C#N)Cc1ccc(Cl)nc1 [Compound 6, 2-[N-(6-chloro-3-pyridylmethyl)cyanamide] ethyl methylcarbonotrithioate]
- Microfilaricidal effect (motility rating) [2]: B

SMILES: CCSC(=S)SCCN(C#N)Cc1ccc(Cl)nc1 [Compound 7]
- Microfilaricidal effect (motility rating) [2]: B

SMILES: CCCSC(=S)SCCN(C#N)Cc1ccc(Cl)nc1 [Compound 8]
- Microfilaricidal effect (motility rating) [2]: B

SMILES: O=C(N=c1ccccn1Cc1cnc(Cl)s1)C(F)(F)F [Compound 213]
- Mortality (greenhouse whitefly; 20 ppm foliar application, eggs on cucumber leaf discs, 14 days after spraying): at least 80%

SMILES: O=C(N=c1ccccn1Cc1ccc(F)nc1)C(F)(F)F [Compound 229, N-[1-((6-fluoropyridin-3-yl)methyl)pyridin-2(1H)-ylidene]-2,2,2-trifluoroacetamide]
- Insecticidal effects (mortality), common cutworm third-instar larvae (common cutworm; 100 ppm): 30
- Insecticidal effects (mortality), common cutworm third-instar larvae (common cutworm; 500 ppm): 100
- mortality at 500 ppm (common cutworm; foliar, 72 h): ≥ 80%
- pest or weed control at 0.005 mg/pot (small brown planthopper [3]; rice soil drenching, 0.005 mg/pot (Table 13), read-out: Small brown planthopper (rice soil drenching), effect): 30%
- pest or weed control at 0.01 mg/pot (small brown planthopper [3]; rice soil drenching, 0.01 mg/pot (Table 13), read-out: Small brown planthopper (rice soil drenching), effect): 100%
- pest or weed control at 0.05 mg/pot (small brown planthopper [3]; rice soil drenching, 0.05 mg/pot (Table 13), read-out: Small brown planthopper (rice soil drenching), effect): 100%
- mortality at 0.05 mg/seedling (small brown planthopper [3]; soil): ≥ 80%
- mortality at 0.005 mg/pot (small brown planthopper [3]; [7]): 30%
- mortality at 0.01 mg/pot (small brown planthopper [3]; [7]): 100%
- mortality at 0.05 mg/pot (small brown planthopper [3]; [7]): 100%
- mortality at 20 µg/seedling (small brown planthopper [4]): ≥ 80%
- mortality at 0.063 mg/seedling (small brown planthopper [4]; [8]): 25%
- mortality at 0.25 mg/seedling (small brown planthopper [4]; [8]): 75%
- mortality at 0.5 mg/seedling (small brown planthopper [4]; [8]): 100%
- mortality at 2 mg/seedling (small brown planthopper [4]; [8]): 100%
- mortality at 50 ppm (rice leaf bug): ≥ 80%
- mortality at 1.25 ppm (cotton aphid; [9]): 80%
- mortality at 5 ppm (cotton aphid; [9]): 95%
- mortality at 20 ppm (cotton aphid; [9]): 100%
- mortality at 100 ppm (cotton aphid; [9]): 100%
- mortality at 500 ppm (cotton aphid; [9]): 100%
- mortality at 20 ppm (cotton aphid; in Cucumis sativus, 72 h): ≥ 80%
- mortality at 100 ppm (cotton aphid; in Cucumis sativus, 72 h): ≥ 80%
- mortality at 500 ppm (cotton aphid; in Cucumis sativus, 72 h): ≥ 80%
- mortality at 20 ppm (diamondback moth; [10]): 40%
- mortality at 100 ppm (diamondback moth; [10]): 100%
- mortality at 500 ppm (diamondback moth; [10]): 100%
- mortality at 100 ppm (diamondback moth; in Brassica oleracea, 72 h): ≥ 80%
- mortality at 500 ppm (diamondback moth; in Brassica oleracea, 72 h): ≥ 80%
- mortality at 5 ppm (small brown planthopper [5]; [8]): 95%
- mortality at 100 ppm (small brown planthopper [5]; in Oryza sativa, 72 h): ≥ 80%
- mortality at 100 ppm (greenhouse whitefly; Cucumis sativus, foliar, 336 h): ≥ 80%
- mortality at 500 ppm (western flower thrips; 72 h): ≥ 80%
- mortality at 100 ppm (western flower thrips; [11]): 60%
- mortality at 500 ppm (western flower thrips; [11]): 100%

SMILES: N#Cc1nn(-c2c(Cl)cc(C(F)(F)F)cc2Cl)c(N)c1[S+]([O-])C(F)(F)F (stereo not shown) [fipronil]
- Mortality ([6]; field-collected line (2006 Kumamoto Prefecture)): 70%
- Mortality ([6]; susceptible line): 100%
